Reference: patent publication US8558011B2, “Cold menthol receptor-1 antagonists” (Janssen Pharmaceutica, NV, priority 2010, dated 2013)
Values joined by “and” are separate entries in the source; they are usually repeats but may differ in a detail not shown here. Equal entries are not always repeated.

Target: T1, canine TRPM8 (Canis lupus familiaris, UniProt Q1A7N1)
T1 construct: expressed in transfected cells
Experiment: In Vitro Canine TRPM8 Functional Assay (Ca2+-sensitive fluorescent dye, icilin activation, FLIPR/FDSS)
Format: cell-based
Conditions: HEK293 cells stably expressing canine TRPM8, icilin activation; for IC50: eight-point dose-response; for % I (0.5 μM): compound at 0.5 μM; for % I (1 μM): compound at 1 μM
Protocol: The functional activity of compounds of Formula (I) was determined by measuring changes in intracellular calcium concentration using a Ca^2+-sensitive fluorescent dye. The changes in fluorescent signal were monitored by a fluorescence plate reader, either a FLIPR™ (Molecular Devices) or FDSS (Hamamatsu).
HEK293 cells stably expressing canine TRPM8 were routinely grown as monolayers in Dulbecco's minimum essential medium supplemented with 10% FBS, 1 mM L-glutamine, 100 units/mL penicillin, 100 ug/mL streptomycin and 400 μg/mL G418. Cells were maintained in 5% CO2 at 37° C. At 24 hrs prior to assay, cells were seeded in clear-base poly-D-lysine coated 384-well plates (BD Biosciences, NJ, USA) at a density of 5,000 cells per well in culture medium and grown overnight in 5% CO2 at 37° C. On assay day, growth media was removed and cells were loaded with Calcium 3 Dye (Molecular Devices) for 35 min at 37° C., under 5% CO2 and then for 25 min at room temperature and atmosphere. Subsequently, cells were tested for agonist-induced increases in intracellular Ca^2+ levels using FLIPR™ or FDSS. Cells were challenged with a compound of Formula (I) (at varying concentrations) and intracellular Ca^2+ was measured for 5 min prior to the addition of icilin to all wells to achieve a final concentration which produces approximately an 80% maximal response.
Basal FI was subtracted prior to normalizing data to percent of maximal response. Curves were generated using the average of quadruplicate wells for each data point, were analyzed using nonlinear regression of either sigmoidal dose response or sigmoidal dose response (variable slope). Finally, the EC50 and IC50 values were calculated with the best-fit dose curve determined by GraphPad Prism.

T1 sequence (Q1A7N1 1-1104): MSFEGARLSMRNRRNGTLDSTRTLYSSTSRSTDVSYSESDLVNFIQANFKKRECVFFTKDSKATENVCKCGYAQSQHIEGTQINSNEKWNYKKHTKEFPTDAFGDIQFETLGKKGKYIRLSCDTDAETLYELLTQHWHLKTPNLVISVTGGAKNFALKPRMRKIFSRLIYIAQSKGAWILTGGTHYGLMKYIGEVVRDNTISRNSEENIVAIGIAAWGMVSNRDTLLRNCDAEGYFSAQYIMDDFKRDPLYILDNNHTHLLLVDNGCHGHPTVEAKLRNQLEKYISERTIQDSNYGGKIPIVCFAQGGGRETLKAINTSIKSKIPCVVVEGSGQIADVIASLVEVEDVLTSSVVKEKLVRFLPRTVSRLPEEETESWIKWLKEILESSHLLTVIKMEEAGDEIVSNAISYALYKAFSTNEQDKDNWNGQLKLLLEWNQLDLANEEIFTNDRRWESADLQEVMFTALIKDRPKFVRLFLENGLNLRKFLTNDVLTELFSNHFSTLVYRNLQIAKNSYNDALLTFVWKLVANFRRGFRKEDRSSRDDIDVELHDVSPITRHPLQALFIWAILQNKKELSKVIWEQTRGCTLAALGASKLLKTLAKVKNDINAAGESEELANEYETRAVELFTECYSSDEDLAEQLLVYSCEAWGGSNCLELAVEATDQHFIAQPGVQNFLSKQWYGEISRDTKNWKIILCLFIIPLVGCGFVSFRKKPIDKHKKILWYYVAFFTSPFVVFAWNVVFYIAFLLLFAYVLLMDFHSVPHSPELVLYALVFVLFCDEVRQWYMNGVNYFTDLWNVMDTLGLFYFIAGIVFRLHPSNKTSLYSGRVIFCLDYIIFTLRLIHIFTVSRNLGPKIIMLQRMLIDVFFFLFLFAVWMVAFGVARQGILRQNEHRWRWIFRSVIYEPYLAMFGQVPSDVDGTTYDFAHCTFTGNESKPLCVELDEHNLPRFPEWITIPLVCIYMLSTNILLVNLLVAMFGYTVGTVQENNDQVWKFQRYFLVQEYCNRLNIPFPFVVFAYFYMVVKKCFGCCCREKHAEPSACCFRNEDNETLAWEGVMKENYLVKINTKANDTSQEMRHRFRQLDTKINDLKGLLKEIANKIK

Structure (SMILES) | IC50 | % I (0.5 μM) | % I (1 μM)
CC(C)OP(=O)(OC(C)C)C(Cc1cccc(Cl)c1)c1sc2ccccc2c1Br (centres unmarked) [Cpd 166] | 18 nM and 14 nM | 102% | 103%
CC(C)OP(=O)(OC(C)C)C(Cc1ccc(Cl)c(C(F)(F)F)c1)c1sc2ccccc2c1Cl (centres unmarked) [Cpd 167] | 97 nM | 104% | –
CC(C)OP(=O)(OC(C)C)C(Cc1cccc(C(F)(F)F)c1F)c1sc2ccccc2c1Cl (centres unmarked) [Cpd 168] | 76 nM | 104% | –
CC(C)OP(=O)(OC(C)C)C(Cc1cc(F)cc(C(F)(F)F)c1)c1sc2ccccc2c1Cl (centres unmarked) [Cpd 169] | 96 nM | 104% | –
CC(C)OP(=O)(OC(C)C)C(Cc1cccc(C(F)(F)F)c1)c1sc2ccccc2c1Cl (centres unmarked) [Cpd 170] | 73 nM | 103% | –
CC(C)OP(=O)(OC(C)C)C(Cc1cc(C(F)(F)F)cc(C(F)(F)F)c1)c1sc2ccccc2c1Cl (centres unmarked) [Cpd 171] | 221 nM | 95% | –
CC(C)OP(=O)(OC(C)C)C(Cc1cc(C(F)(F)F)ccc1F)c1sc2ccccc2c1Cl (centres unmarked) [Cpd 172] | 105 nM | 104% | –
CC(C)OP(=O)(OC(C)C)C(Cc1ccccc1C(F)(F)F)c1sc2ccccc2c1Cl (centres unmarked) [Cpd 173] | 140 nM | 103% | –
CCC(C)P(=O)(C(C)CC)C(OCc1ccc(F)c(F)c1)c1sc2ccccc2c1Br (centres unmarked) [Cpd 204] | 92 nM | – | 100%
CC(C)OP(=O)(OC(C)C)C(Cc1ccc(F)c(F)c1)c1oc2cccc(F)c2c1Br (centres unmarked) [Cpd 205] | 50 nM | – | 101%
CCOP(=O)(OCC)C(Cc1ccc(F)c(F)c1)c1oc2cccc(F)c2c1Br (centres unmarked) [Cpd 206] | 98 nM | – | 100%
CC(C)OP(=O)(OC(C)C)C(Cc1ccc(F)c(F)c1)c1sc2ncccc2c1Br (centres unmarked) [Cpd 207] | 51 nM | 99% | –
CCOP(=O)(OCC)C(Cc1ccc(F)c(F)c1)c1sc2ccccc2c1-c1ccsc1 (centres unmarked) [Cpd 208] | 104 nM | 104% | –
CC(C)CCOP(=O)(OCCC(C)C)C(Cc1ccc(F)c(F)c1)c1sc2ccccc2c1Br (centres unmarked) [Cpd 211] | 95 nM | 97% | –
CC(=O)OCCOP(=O)(OCCOC(C)=O)C(Cc1ccc(F)c(F)c1)c1sc2ccccc2c1Br (centres unmarked) [Cpd 213] | 202 nM | 100% | –
CCOP(=O)(OCC)C(Cc1ccc(F)c(F)c1)c1sc2ccccc2c1-c1ccccc1O (centres unmarked) [Cpd 215] | 85 nM | 101% | –
CCOP(=O)(OCC)C(Cc1ccc(F)c(F)c1)c1sc2ccccc2c1-c1ccccc1F (centres unmarked) [Cpd 216] | 126 nM | 100% | –
CCOP(=O)(OCC)C(Cc1ccc(F)c(F)c1)c1sc2ccccc2c1-c1cccc(C(N)=O)c1 (centres unmarked) [Cpd 218] | 483 nM | 79% | –
CCOP(=O)(OCC)C(Cc1ccc(F)c(F)c1)c1sc2ccccc2c1-c1ccc(F)cc1 (centres unmarked) [Cpd 220] | 207 nM | 101% | –
CC(C)OP(=O)(OC(C)C)C(Cc1ccc(F)c(C(F)(F)F)c1)c1sc2cccc(F)c2c1Br (centres unmarked) [Cpd 222] | 33 nM | 103% | –
CCOP(=O)(OCC)C(Cc1ccc(F)c(C(F)(F)F)c1)c1sc2cccc(F)c2c1Br (centres unmarked) [Cpd 223] | 52 nM | 102% | –
CCOP(=O)(OCC)C(Cc1ccc(F)c(F)c1)c1sc2cccc(F)c2c1Br (centres unmarked) [Cpd 224] | 44 nM | 102% | –
CCOP(=O)(OCC)C(Cc1ccc(F)c(O)c1)c1sc2ccccc2c1Br (centres unmarked) [Cpd 225, [1-(3-Bromo-benzo[b]thiophen-2-yl)-2-(4-fluoro-3-hydroxy-phenyl)-ethyl]-phosphonic acid diethyl ester] | – | 103% | –
CCOP(=O)(OCC)C(Cc1c(F)c(F)c(O)c(F)c1F)c1sc2ccccc2c1Br (centres unmarked) [Cpd 228] | 129 nM | 94% | –
CC(C)OP(=O)(OC(C)C)C(Cc1c(F)c(F)c(O)c(F)c1F)c1sc2ccccc2c1Br (centres unmarked) [Cpd 229] | 156 nM | 95% | –
